ChEMBL document CHEMBL4138080, “Improved synthesis and comparative analysis of the tool properties of new and existing D-ring modified (S)-blebbistatin analogs” (Eur J Med Chem, 2017)
Converted amounts (≈) assume the structure as drawn.

Legend:
[1] = Aqueous solubility at steady-state in pH 7.4 PBS at 200 uM after 24 hrs by HPLC method; assay type: physicochemical; details: for solubility at 24 h, 200 µM: PBS, pH 7.4
[2] = Photostability of the compound in DMSO/H20 (1:1) solvent assessed as half life for compound degradation at 100 to 600 uM under irradiation at 390 to 470 nm by HPLC analysis; assay type: physicochemical; details: DMSO/H2O (1:1)
[3] = Apparent permeability from basolateral to apical side in human Caco2 cells at 10 uM after 40 mins by HPLC-MS/MS analysis; assay type: ADME, cell-based; details: Caco-2
Oryctolagus cuniculus = organism: Oryctolagus cuniculus; test: Potency index, ratio of (S)-blebbistatin (S)-1 IC50 to compound IC50 for inhibition of rabbit full length skeletal muscle myosin 2 ATPase activity by CytoPhos reagent based ATPase assay
[4] = Apparent permeability from apical to basolateral side in human Caco2 cells assessed as drug recovery at 10 uM after 60 mins by HPLC-MS/MS analysis; assay type: ADME, cell-based; details: Caco-2, read-out: Drug recovery
[5] = Apparent permeability from apical to basolateral side in human Caco2 cells at 10 uM after 60 mins by HPLC-MS/MS analysis; assay type: ADME, cell-based; details: Caco-2
[6] = Apparent permeability from basolateral to apical side in human Caco2 cells assessed as drug recovery at 10 uM after 40 mins by HPLC-MS/MS analysis; assay type: ADME, cell-based; details: Caco-2, read-out: Drug recovery
[7] = Inhibition of rabbit full length skeletal muscle myosin 2 ATPase activity using Pre-formed rabbit skeletal muscle F-actin filaments and ATP incubated for 1 hr by CytoPhos reagent based ATPase assay; design: species or system Oryctolagus cuniculus
[8] = Photostability of the compound in DMSO/H20 (1:1) solvent assessed as compound degradation at 100 to 600 uM under irradiation at 390 to 470 nm after mins by HPLC analysis; assay type: physicochemical; details: DMSO/H2O (1:1); read-out: Drug degradation
[9] = Photostability of the compound in DMSO alone solvent assessed as compound degradation at 100 to 600 uM under irradiation at 390 to 470 nm up to 90 mins by HPLC analysis; assay type: physicochemical; details: 1.5 h
[10] = Photostability of the compound in PBS/MeOH at 20 uM under blue light irradiation at 488 nm assessed as compound degradation after 30 mins by fluorescence spectroscopic analysis; assay type: physicochemical; details: buffer, 0.5 h

SMILES | solubility at 24 h, 200 µM [1] [µM] | half-life at up to 600 µM [2] [min] | Papp B→A at 40 min, 10 µM [3] [nm/s] | Ratio IC50 (Oryctolagus cuniculus) | recovery at 1 h, 10 µM [4] [%] | Papp A→B at 1 h, 10 µM [5] [nm/s] | recovery at 40 min, 10 µM [6] [%] | IC50 [7] [µM] | also measured
Cc1ccc2c(c1)C(=O)[C@]1(O)CCN(c3ccc4c(c3)NCC4)C1=N2 | – | – | – | 0.11 | – | – | – | 7.7 | –
C=CC(=O)Oc1cccc(N2CC[C@@]3(O)C(=O)c4cc(C)ccc4N=C23)c1 | – | – | – | 0.04 | – | – | – | 57.6 | –
C=CCOc1cccc(N2CC[C@@]3(O)C(=O)c4cc(C)ccc4N=C23)c1 | 2.83 (≈ 0.986 µg/mL) | 15 | – | 0.23 | – | – | – | 9.41 | –
Cc1ccc2c(c1)C(=O)[C@]1(O)CCN(c3ccc(OCc4ccccc4)cc3)C1=N2 | – | – | – | < 0.02 | – | – | – | > 40 | –
CCC(=O)Oc1cccc(N2CC[C@@]3(O)C(=O)c4cc(C)ccc4N=C23)c1 | – | – | – | 0.09 | – | – | – | 23.5 | –
C=CCN(CC=C)c1cccc(N2CC[C@@]3(O)C(=O)c4cc(C)ccc4N=C23)c1 | – | – | – | – | – | – | – | > 10.8 | –
C=CC(=O)Nc1cccc(N2CC[C@@]3(O)C(=O)c4cc(C)ccc4N=C23)c1 | – | – | – | < 0.02 | – | – | – | > 100 | –
CCC(=O)Nc1cccc(N2CC[C@@]3(O)C(=O)c4cc(C)ccc4N=C23)c1 | – | – | – | < 0.02 | – | – | – | > 100 | –

Further lines, with some results ahead:

solubility at 24 h, 200 µM [1] [µM] | half-life at up to 600 µM [2] [min] | Papp B→A at 40 min, 10 µM [3] [nm/s] | Ratio IC50 (Oryctolagus cuniculus) | recovery at 1 h, 10 µM [4] [%] | Papp A→B at 1 h, 10 µM [5] [nm/s] | recovery at 40 min, 10 µM [6] [%] | IC50 [7] [µM] | SMILES | also measured
186 (≈ 57.2 µg/mL) | 13 | 262 | 0.15 | 79 | 627 | 74 | – | Cc1ccc2c(c1)C(=O)[C@]1(O)CCN(c3cccc(N)c3)C1=N2 | –
– | – | – | 0.12 | – | – | – | 7.2 | Cc1ccc2c(c1)C(=O)[C@]1(O)CCN(c3ccc4cc[nH]c4c3)C1=N2 | –
– | – | – | < 0.02 | – | – | – | – | Cc1ccc2c(c1)C(=O)[C@]1(O)CCN(c3cccc(C(=O)O)c3)C1=N2 | –
2.75 (≈ 0.958 µg/mL) | 8.8 | 75.8 | 2.3 | 32 | 297 | 65 | 0.38 | C=CCOc1ccc(N2CC[C@@]3(O)C(=O)c4cc(C)ccc4N=C23)cc1 | –
31.7 (≈ 10.7 µg/mL) | > 90 | 22.3 | 2.5 | 34 | 325 | 72 | – | Cc1ccc2c(c1)C(=O)[C@]1(O)CCN(c3ccc([N+](=O)[O-])cc3)C1=N2 | degraded at up to 600 µM [8]: 33%
– | – | – | < 0.02 | – | – | – | > 40 | Cc1ccc2c(c1)C(=O)[C@]1(O)CCN(c3ccc4ccccc4c3)C1=N2 | –
– | – | – | 0.04 | – | – | – | – | Cc1ccc2c(c1)C(=O)[C@]1(O)CCN(c3cccc(C#N)c3)C1=N2 | –
82.4 (≈ 25.4 µg/mL) | 4.7 | – | 0.16 | – | – | – | 5.47 | Cc1ccc2c(c1)C(=O)[C@]1(O)CCN(c3ccc(O)cc3)C1=N2 | –
> 200 | 44 | 311 | 0.19 | 85 | 694 | 82 | – | Cc1ccc2c(c1)C(=O)[C@]1(O)CCN(c3ccc(N)cc3)C1=N2 | –
– | – | – | < 0.02 | – | – | – | – | Cc1ccc2c(c1)C(=O)[C@]1(O)CCN(c3cccc(C(N)=O)c3)C1=N2 | –
193 (≈ 59.5 µg/mL) | 11 | 172 | 0.11 | 49 | 285 | 70 | – | Cc1ccc2c(c1)C(=O)[C@]1(O)CCN(c3cccc(O)c3)C1=N2 | –
– | 14 | 192 | 1 | 66 | 605 | 66 | 0.873 to 2.16 | Cc1ccc2c(c1)C(=O)[C@]1(O)CCN(c3ccccc3)C1=N2 | solubility ([1]; buffer, pH 7.4, 24 h, 200 µM): 6.18 µM (≈ 1.81 µg/mL); Stability [9]: Stable; Stability [10]: Stable
